Biological target: T1, γ-secretase, Aβ(1-42) production in SH-SY5Y neuroblastoma cells overexpressing SPA4CT (Homo sapiens, UniProt P49768)
T1 construct: Human SH-SY5Y neuroblastoma cells overexpressing the direct γ-secretase substrate SPA4CT; endogenous in cells; host or cells: human SH-SY5Y neuroblastoma cells, transfected only with the substrate SPA4CT and induced with sodium butyrate
Experiment: Cell-based γ-secretase assay, Aβ(42) detection
Settings: overnight incubation
Protocol: Cell-Based γ-Secretase Assay
Human SH-SY5Y neuroblastoma cells overexpressing the direct γ-secretase substrate SPA4CT were induced with sodium butyrate (10 mM) for 4 hours prior to plating. Cells were plated at 35,000 cells/well/100 μl in 96-well plates in phenol red-free MEM/10% FBS, 50 mM HEPES, 1% Glutamine and incubated for 2 hrs at 37° C., 5% CO2.
Appropriate vehicle and inhibitor controls were used to determine the window of the assay.
After incubation overnight at 37° C., 5% CO2, 25 μl and […] were transferred into a standard Meso avidin-coated 96-well plate for detection of Aβ(40) and Aβ(42) peptides, respectively. 25 μl Meso Assay buffer (PBS, 2% BSA, 0.2% Tween-20) was added to the Aβ(40) wells followed by the addition of 25 μl of the respective antibody premixes to the wells:
Aβ(42) premix: 1 μg/mlruthenylated G2-11 antibody, 4 μg/ml; and biotinylated 4G8 antibody diluted in Origen buffer
(Biotinylated 4G8 antibody supplied by Signet Pathology Ltd; G2-10 and G2-11 antibodies supplied by Chemicon)
After overnight incubation of the assay plates on a shaker at 4° C., the Meso Scale Sector 6000 Imager was calibrated according to the manufacturer's instructions. After washing the plates 3 times with 150 μl of PBS per well, 150 μl Meso Scale Discovery read buffer was added to each well and the plates were read on the Sector 6000 Imager according to the manufacturer's instructions.
The total signal and the background were defined by the corresponding Me2SO and inhibitor controls.

Row | IC50 | Structure (SMILES)
1 | 83 nM | O=C1C(n2cc(-c3ccc(-c4ccnnc4)cc3)nn2)CCc2c(F)cccc2N1CC(F)(F)F (racemic) [Example 123, (R) and (S)-6-fluoro-3-[4-(4-pyridazin-4-ylphenyl)-1H-1,2,3-triazol-1-yl]-1-(2,2,2-trifluoroethyl)-1,3,4,5-tetrahydro-2H-1-benzazepin-2-one]
2 | 80 nM | COc1cc(-c2cn(C3CCc4ccccc4N(CC(F)(F)F)C3=O)nn2)ccc1-c1ccncc1 (stereo not drawn) [Example 1, 3-[4-(3-methoxy-4-pyridin-4-ylphenyl)-1H-1,2,3-triazol-1-yl]-1-(2,2,2-trifluoroethyl)-1,3,4,5-tetrahydro-2H-1-benzazepin-2-one]
3 | 1330 nM | O=C1C(n2cc(-c3ncc(-c4ccncc4)cn3)nn2)CCc2c(F)cccc2N1CC(F)(F)F (stereo not drawn) [Example 2, 6-fluoro-3-{4-[5-(pyridin-4-yl)pyrimidin-2-yl]-1H-1,2,3-triazol-1-yl}-1-(2,2,2-trifluoroethyl)-1,3,4,5-tetrahydro-2H-1-benzazepin-2-one]
4 | 431 nM | COc1cc(-c2nc(C)no2)ccc1-c1cn(C2CCc3c(F)cccc3N(CC(F)(F)F)C2=O)nn1 (stereo not drawn) [Example 57, 6-fluoro-3-{4-[2-methoxy-4-(3-methyl-1,2,4-oxadiazol-5-yl)phenyl]-1H-1,2,3-triazol-1-yl}-1-(2,2,2-trifluoroethyl)-1,3,4,5-tetrahydro-2H-1-benzazepin-2-one]
5 | 537 nM | O=C1C(n2cc(-c3ccc(Oc4cccnc4)cc3)nn2)CCc2c(F)cccc2N1CC(F)(F)F (stereo not drawn) [Example 61, 6-fluoro-3-{4-[4-(pyridin-3-yloxy)phenyl]-1H-1,2,3-triazol-1-yl}-1-(2,2,2-trifluoroethyl)-1,3,4,5-tetrahydro-2H-1-benzazepin-2-one]
6 | 226 nM | COc1cc(-c2cn(C3CCc4c(F)cccc4N(CC(F)(F)F)C3=O)nn2)ccc1Nc1cccnc1 (stereo not drawn) [Example 92, 6-fluoro-3-{4-[3-methoxy-4-(pyridin-3-ylamino)phenyl]-1H-1,2,3-triazol-1-yl}-1-(2,2,2-trifluoroethyl)-1,3,4,5-tetrahydro-2H-1-benzazepin-2-one]

Source: patent US8575150B2, “Triazole derivatives for treatment of Alzheimer's disease” (Merck Sharp & Dohme Corp., priority 2008, dated 2013)
